Like-named read-outs stand apart in the source and are kept apart here.
Test system: Adjuvant-Induced Arthritis
Experiment: Adjuvant-induced arthritis in the rat (Mycobacterium butyricum, subplantar; inhibition of hindpaw edema, primary and secondary lesions)
Format: in vivo, rat (adult male Wistar-Lewis)
Details: for % Inhibition of Lesions, Secondary (mean ± SE): contralateral non-injected paw, day 16; for % Inhibition of Lesions, Primary (mean ± SE): injected paw, day 4; for ED50: Rattus norvegicus
Protocol: Adjuvant arthritis was induced in adult male Wistar-Lewis rats weighing 250-270 grams each (Charles River Breeding Laboratories, Kingston, N.Y.) by a single subplantar injection of 1 mg of Mycobacterium butyricum (Difco Laboratories, Lot #0640-33) suspended in 0.1 ml mineral oil as described by Walz et al. (Proc. Soc. Exptl. Biol. Med., 136: 907-910, 1971). Seven rats were used in each group. Orally administered drugs were dissolved in water and dilute sodium hydroxide was added as necessary to ensure solution; control groups received only water. After neutralization of the solutions to pH 7.0, a volume of 10 ml/kg body weight was given by intubation with a blunt end, 18-gauge needle. Doses of each drug were given daily starting 1 day before the injection of adjuvant and continuing until 16 days after the induction of the arthritic lesion.
The initial hindpaw volumes (Vi) were measured on the day of adjuvant injection and the resultant swelling was determined on the injected paw (Vf - Vi) on the 4th day following the adjuvant injection. This was considered to be the primary response or lesion. The swelling (Vf - Vi) measured 16 days after adjuvant injection on the contralateral, non-injected hindpaw constituted the secondary response or lesion. The rats were weighed at the start of the experiments as well as 4 and 16 days after the induction of the disease. Percent inhibition of edema was calculated according to the following formula: [formula]

In the case of `Cc1nc(-c2csc(NC(=N)N)n2)c[nH]1.Cl.Cl` [Compound A, 2-Guanidino-4-(2-methyl-4-imidazolyl)thiazole Dihydrochloride], the “effect on the course of adjuvant arthritis in rats (in words)” value (compound alone) is reported as “beneficial effect”, the “% Inhibition of Lesions, Secondary (mean ± SE)” value (oral 1.0 mg/kg daily) is reported as 3 (3) % and the “% Inhibition of Lesions, Primary (mean ± SE)” value (oral 1.0 mg/kg daily) is reported as 0 (6) %. For the same compound, the “% Inhibition of Lesions, Secondary (mean ± SE)” value (oral 3.3 mg/kg daily) was 28 (4) %, the “% Inhibition of Lesions, Primary (mean ± SE)” value (oral 3.3 mg/kg daily) was 0 (3) % and the “% Inhibition of Lesions, Secondary (mean ± SE)” value (oral 10.0 mg/kg daily) was 27 (3) %. The “% Inhibition of Lesions, Primary (mean ± SE)” value (oral 10.0 mg/kg daily) was 2 (2) %, the “ED50 (in words)” value (oral, linear regression of Table I data, secondary lesions) was “no reliable ED50 could be extrapolated” and the “activity against primary lesions (in words)” value (oral, primary lesions) was “no significant activity”. For the same compound, the “activity against secondary lesions (in words)” value (oral, secondary lesions) was “significant activity”.
For `CN1C(C(=O)Nc2ccccn2)=C(O)c2ccccc2S1(=O)=O` [Piroxicam, reference compound], the ED50 (oral, linear regression of Table I data, primary lesions, read-out: ED50 against primary lesions) was 2.6 mg/kg, the ED50 (oral, linear regression of Table I data, secondary lesions, read-out: ED50 against secondary lesions) was 0.45 mg/kg and the “% Inhibition of Lesions, Secondary (mean ± SE)” value (oral 0.10 mg/kg daily) was 26 (2) %. The “% Inhibition of Lesions, Primary (mean ± SE)” value (oral 0.10 mg/kg daily) was 29 (4) %, the “% Inhibition of Lesions, Secondary (mean ± SE)” value (oral 0.33 mg/kg daily) was 43 (4) % and the “% Inhibition of Lesions, Primary (mean ± SE)” value (oral 0.33 mg/kg daily) was 33 (8) %. For the same compound, the “% Inhibition of Lesions, Secondary (mean ± SE)” value (oral 1.0 mg/kg daily) was 64 (3) % and the “% Inhibition of Lesions, Primary (mean ± SE)” value (oral 1.0 mg/kg daily) was 45 (7) %.

Reference: patent US4591595A, “2-guanidino-4-(2-methyl-4-imidazolyl)thiazoles in the treatment of rheumatoid arthritis” (Pfizer Inc., priority 1985, dated 1986)
